Assay results reported in patent publication US20230339854A1, “Negative Allosteric Modulation of GluN3-Containing N-Methyl-D-Aspartate Receptors” (Emory University, priority 2020, published 2023).

What follows are molecules tested against T1, human GluN1^FA,TL/GluN3A receptors (Homo sapiens, UniProt Q8TCU5) (assay: Two-electrode voltage-clamp recordings of GluN1^FA,TL/GluN3A receptors in Xenopus oocytes). Conditions: hGluN1^FA,TL/hGluN3A; read-out: IC50.
T1 construct: Human GluN3A (NP_597702.2) and rat GluN3B (NP_579842.2) were synthesized and subcloned into SP6 plasmids; expressed in transfected cells; host or cells: Xenopus laevis oocytes, cRNA injection (GluN1:GluN3 1:3)
T1 sequence (Q8TCU5 24-1115, other chains not shown): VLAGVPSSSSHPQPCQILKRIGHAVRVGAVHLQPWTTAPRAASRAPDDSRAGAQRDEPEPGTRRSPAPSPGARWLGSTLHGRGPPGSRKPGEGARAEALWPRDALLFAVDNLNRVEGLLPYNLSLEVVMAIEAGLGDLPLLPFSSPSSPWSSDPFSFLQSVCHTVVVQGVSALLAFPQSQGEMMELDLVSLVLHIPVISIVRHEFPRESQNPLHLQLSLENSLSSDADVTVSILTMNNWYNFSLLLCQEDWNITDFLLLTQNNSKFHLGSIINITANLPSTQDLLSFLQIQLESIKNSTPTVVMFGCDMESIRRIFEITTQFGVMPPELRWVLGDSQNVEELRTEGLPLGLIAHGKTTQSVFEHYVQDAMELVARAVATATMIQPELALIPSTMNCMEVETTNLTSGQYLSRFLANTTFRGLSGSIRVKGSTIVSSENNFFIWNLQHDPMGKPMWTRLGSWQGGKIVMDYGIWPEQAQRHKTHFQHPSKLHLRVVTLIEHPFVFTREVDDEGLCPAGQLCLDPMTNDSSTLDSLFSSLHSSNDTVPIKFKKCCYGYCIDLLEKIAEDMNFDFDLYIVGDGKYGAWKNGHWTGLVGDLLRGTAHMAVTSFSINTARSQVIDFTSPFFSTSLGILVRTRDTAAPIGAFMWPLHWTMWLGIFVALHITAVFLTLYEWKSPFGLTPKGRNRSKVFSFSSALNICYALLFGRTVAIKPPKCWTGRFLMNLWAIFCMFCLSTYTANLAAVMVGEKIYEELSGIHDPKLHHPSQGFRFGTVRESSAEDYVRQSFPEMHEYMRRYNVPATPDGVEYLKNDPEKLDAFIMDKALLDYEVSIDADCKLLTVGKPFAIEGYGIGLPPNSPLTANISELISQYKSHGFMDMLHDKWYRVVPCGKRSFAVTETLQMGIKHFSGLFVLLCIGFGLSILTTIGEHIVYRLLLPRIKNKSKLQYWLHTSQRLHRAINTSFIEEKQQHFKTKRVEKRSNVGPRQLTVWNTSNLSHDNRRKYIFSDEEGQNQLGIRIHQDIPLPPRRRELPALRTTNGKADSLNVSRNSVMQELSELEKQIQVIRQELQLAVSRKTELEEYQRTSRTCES
Type: cell-based
Description: cDNA encoding human wild-type (WT) GluN1-1a (GenBank accession numbers NP_015566, hereafter GluN1) and rat GluN1-1a (NP_058706.1) were synthesized and subcloned into pGEMHE plasmid; some experiments used the rat splice variant GluN1-4a (NP_001257531.1). Human GluN3A (NP_597702.2) and rat GluN3B (NP_579842.2) were synthesized and subcloned into SP6 plasmids. For most experiments, human GluN1 was co-expressed with human GluN3A, except for mutagenesis experiments where rat GluN1 was co-expressed with human GluN3A. Rat GluN1-4a was always expressed with rat GluN3B.
Defolliculated Xenopus laevis oocytes (stage V-VI) were obtained from Ecocyte BioScience (Austin, Texas), or prepared from commercially available Xenopus ovaries (Xenopus 1, Dexter, MI) as previously described (Hansen, et al., Mol. Pharmacol., 2013). A Drummond Nanoject II (Broomall, PA) was used to inject oocytes with cRNAs encoding GluN1 and GluN3 at a 1:3 ratio in RNase-free water. The cRNA was diluted as needed to give responses with amplitudes ranging between 200-2000 nA (0.2-10 ng total cRNA). Following cRNA injection, the oocytes were stored at 15-19° C. in Barth's solution that contained (in mM) 88 NaCl, 2.4 NaHCO3, 1 KCl, 0.33 Ca(NO3)2, 0.41 CaCl2), 0.82 MgSO4, and 5 Tris-HCl (pH 7.4 with NaOH), supplemented with 1 μg/ml streptomycin (Invitrogen, Carlsbad, CA) and 100 μg/ml gentamicin (Fisher Scientific, Pittsburgh, PA). Recordings were performed 2-5 days following cRNA microinjection at room temperature (23° C.) using a two-electrode voltage-clamp amplifier (OC725, Warner Instrument, Hamilton, CT). The signal was low-pass filtered at 10-20 Hz (4-pole, −3 dB Bessel) and digitized at the Nyquist rate using PCI-6025E or USB-6212 BNC data acquisition boards (National Instruments, Austin, TX) using EasyOocyte (http://www.easyoocyte.io/). Oocytes were placed in a custom-made chamber and continuously perfused (2.5 ml/min) with oocyte recording solution containing (in mM) 90 NaCl, 1 KCl, 10 HEPES, 0.5-1.0 BaCl2, and 0.01 EDTA (pH 7.4 with NaOH). Solutions were applied by gravity, and solution exchange was controlled through a rotary valve (Hamilton, Reno, NV). Recording electrodes were filled with 0.3-3.0 M KCl, and current responses were recorded at a holding potential of −40 mV.
Response (%)=(100−minimum)/(1+([concentration]/IC50)^nH)+minimum (2) • where nH is the Hill slope, IC50 is the concentration that produces a half-maximal effect, and minimum is the degree of residual inhibition at a saturating concentration of the negative allosteric modulator.
The afore-referenced compounds were screened in the same assay as EU1180-438 to determine their effects on hGluN1^FA,TL/hGluN3A receptors. Selected compounds that inhibited by more than 20% at the concentration at which they were initially evaluated (either 10 or 30 μM) were analyzed further, and a dose-response curve was generated to determine their IC50 values.
With CCOc1ccc(OCC(c2ccc(OC(C)C)cc2)N2Cc3ccc(F)cc3C2=O)cc1 (centres unmarked) [EU1180-590, 6-fluoro-2-(2-(4-ethoxyphenoxy)-1-(4-isopropoxyphenyl)ethyl)isoindolin-1-one] the IC50 was 15.7 µM. COc1cc(F)c(C(COc2cccc(C)n2)N2Cc3ccc(Cl)cc3C2=O)c(F)c1 (centres unmarked) [EU1180-611, 6-Chloro-2-(1-(2,6-difluoro-4-methoxyphenyl)-2-((6-methylpyridin-2-yl)oxy)ethyl)isoindolin-1-one] gave an IC50 of 63 µM.

Same assay, conditions: read-out: hGluN1^FA,TL/hGluN3A (100 × Idrug/Icontrol at 30 μM drug)
Work on CCOc1ccc(OCC(c2ccc(OC(C)C)cc2)N2Cc3ccc(Cl)cc3C2=O)cc1 (centres unmarked) [EU1180-588, 6-chloro-2-(2-(4-ethoxyphenoxy)-1-(4-isopropoxyphenyl)ethyl)isoindolin-1-one] yielded a remaining activity at 30 µM of 67%. With CCOc1ccc(OCC(c2ccc(OC(C)C)cc2)N2Cc3cc(Cl)ccc3C2=O)cc1 (centres unmarked) [EU1180-589, 5-chloro-2-(2-(4-ethoxyphenoxy)-1-(4-isopropoxyphenyl)ethyl)isoindolin-1-one] the remaining activity at 30 µM was 87%. CCOc1ccc(OCC(c2ccc(OC(C)C)cc2)N2Cc3ccc(F)cc3C2=O)cc1 (centres unmarked) [EU1180-590, 6-fluoro-2-(2-(4-ethoxyphenoxy)-1-(4-isopropoxyphenyl)ethyl)isoindolin-1-one] showed a remaining activity at 30 µM of 35%. CCOc1ccc(OCC(c2ccc(OC(C)C)cc2)N2Cc3cc(F)ccc3C2=O)cc1 (centres unmarked) [EU1180-591, 5-fluoro-2-(2-(4-ethoxyphenoxy)-1-(4-isopropoxyphenyl)ethyl)isoindolin-1-one] gave a remaining activity at 30 µM of 90%. For CCOc1ccc(OCC(c2ccc(OC(C)C)cc2)N2Cc3ccc(Br)cc3C2=O)cc1 (centres unmarked) [EU1180-592, 6-bromo-2-(2-(4-ethoxyphenoxy)-1-(4-isopropoxyphenyl)ethyl)isoindolin-1-one], the remaining activity at 30 µM was 78%. For COc1ccc(C(COc2cccc(C)n2)N2Cc3ccc(C(F)(F)F)cc3C2=O)cc1 (centres unmarked) [EU1180-593, 2-(1-(4-Methoxyphenyl)-2-((6-methylpyridin-2-yl)oxy)ethyl)-6-(trifluoromethyl)isoindolin-1-one], the remaining activity at 30 µM was 83%. COc1ccc(C(COc2cccc(C)n2)N2Cc3cc(Cl)ccc3C2=O)cc1 (centres unmarked) [EU1180-594, 5-Chloro-2-(1-(4-methoxyphenyl)-2-((6-methylpyridin-2-yl)oxy)ethyl)isoindolin-1-one] showed a remaining activity at 30 µM of 73%. In the case of COc1ccc(C(COc2cccc(C)n2)N2Cc3ccc(Cl)cc3C2=O)cc1 (centres unmarked) [EU1180-595, 6-Chloro-2-(1-(4-methoxyphenyl)-2-((6-methylpyridin-2-yl)oxy)ethyl)isoindolin-1-one], the remaining activity at 30 µM is reported as 75%. For COc1ccc(C(COc2cccc(C)n2)N2Cc3cc(Br)ccc3C2=O)cc1 (centres unmarked) [EU1180-596, 5-Bromo-2-(1-(4-methoxyphenyl)-2-((6-methylpyridin-2-yl)oxy)ethyl)isoindolin-1-one], the remaining activity at 30 µM was 92%. Molecule COc1ccc(C(COc2cccc(C)n2)N2Cc3ccc(Br)cc3C2=O)cc1 (centres unmarked) [EU1180-597, 6-Bromo-2-(1-(4-methoxyphenyl)-2-((6-methylpyridin-2-yl)oxy)ethyl)isoindolin-1-one] has a remaining activity at 30 µM of 69%. COc1ccc(C(COc2cccc(C)n2)N2Cc3cc(F)ccc3C2=O)cc1 (centres unmarked) [EU1180-598, 5-Fluoro-2-(1-(4-methoxyphenyl)-2-((6-methylpyridin-2-yl)oxy)ethyl)isoindolin-1-one] showed a remaining activity at 30 µM of 89%. Molecule COc1ccc(C(COc2cccc(C)n2)N2Cc3ccc(F)cc3C2=O)cc1 (centres unmarked) [EU1180-599, 6-Fluoro-2-(1-(4-methoxyphenyl)-2-((6-methylpyridin-2-yl)oxy)ethyl)isoindolin-1-one] has a remaining activity at 30 µM of 57%. COc1ccc(C(COc2cccc(C)n2)N2Cc3ccccc3C2=O)c(F)c1 (centres unmarked) [EU1180-600, 2-(1-(2-Fluoro-4-methoxyphenyl)-2-((6-methylpyridin-2-yl)oxy)ethyl)isoindolin-1-one] gave a remaining activity at 30 µM of 87%. Molecule COc1ccc(C(COc2cccc(C)n2)N2Cc3cc(F)ccc3C2=O)c(F)c1 (centres unmarked) [EU1180-601, 5-Fluoro-2-(1-(2-fluoro-4-methoxyphenyl)-2-((6-methylpyridin-2-yl)oxy)ethyl)isoindolin-1-one] has a remaining activity at 30 µM of 79%. COc1ccc(C(COc2cccc(C)n2)N2Cc3ccc(F)cc3C2=O)c(F)c1 (centres unmarked) [EU1180-602, 6-Fluoro-2-(1-(2-fluoro-4-methoxyphenyl)-2-((6-methylpyridin-2-yl)oxy)ethyl)isoindolin-1-one] gave a remaining activity at 30 µM of 73%. With COc1ccc(C(COc2cccc(C)n2)N2Cc3ccc(C(F)(F)F)cc3C2=O)c(F)c1 (centres unmarked) [EU1180-603, 2-(1-(2-Fluoro-4-methoxyphenyl)-2-((6-methylpyridin-2-yl)oxy)ethyl)-6-(trifluoromethyl)isoindolin-1-one] the remaining activity at 30 µM was 84%. COc1ccc(C(COc2cccc(C)n2)N2Cc3cc(Cl)ccc3C2=O)c(F)c1 (centres unmarked) [EU1180-604, 5-Chloro-2-(1-(2-fluoro-4-methoxyphenyl)-2-((6-methylpyridin-2-yl)oxy)ethyl)isoindolin-1-one] was tested, and the remaining activity at 30 µM was 81%. With COc1ccc(C(COc2cccc(C)n2)N2Cc3ccc(Cl)cc3C2=O)c(F)c1 (centres unmarked) [EU1180-605, 6-Chloro-2-(1-(2-fluoro-4-methoxyphenyl)-2-((6-methylpyridin-2-yl)oxy)ethyl)isoindolin-1-one] the remaining activity at 30 µM was 69%. For COc1ccc(C(COc2cccc(C)n2)N2Cc3cc(Br)ccc3C2=O)c(F)c1 (centres unmarked) [EU1180-606, 5-Bromo-2-(1-(2-fluoro-4-methoxyphenyl)-2-((6-methylpyridin-2-yl)oxy)ethyl)isoindolin-1-on], the remaining activity at 30 µM was 66%. COc1ccc(C(COc2cccc(C)n2)N2Cc3ccc(Br)cc3C2=O)c(F)c1 (centres unmarked) [EU1180-607, 6-Bromo-2-(1-(2-fluoro-4-methoxyphenyl)-2-((6-methylpyridin-2-yl)oxy)ethyl)isoindolin-1-one] was tested, and the remaining activity at 30 µM was 62%. For COc1cc(F)c(C(COc2cccc(C)n2)N2Cc3ccccc3C2=O)c(F)c1 (centres unmarked) [EU1180-608, 2-(1-(2,6-Difluoro-4-methoxyphenyl)-2-((6-methylpyridin-2-yl)oxy)ethyl)isoindolin-1-one], the remaining activity at 30 µM was 70%. Molecule COc1cc(F)c(C(COc2cccc(C)n2)N2Cc3ccc(C(F)(F)F)cc3C2=O)c(F)c1 (centres unmarked) [EU1180-609, 2-(1-(2,6-Difluoro-4-methoxyphenyl)-2-((6-methylpyridin-2-yl)oxy)ethyl)-6-(trifluoromethyl)isoindolin-1-one] has a remaining activity at 30 µM of 81%. COc1cc(F)c(C(COc2cccc(C)n2)N2Cc3cc(Cl)ccc3C2=O)c(F)c1 (centres unmarked) [EU1180-610, 5-Chloro-2-(1-(2,6-difluoro-4-methoxyphenyl)-2-((6-methylpyridin-2-yl)oxy)ethyl)isoindolin-1-one] was tested, and the remaining activity at 30 µM was 76%. COc1cc(F)c(C(COc2cccc(C)n2)N2Cc3ccc(Cl)cc3C2=O)c(F)c1 (centres unmarked) [EU1180-611, 6-Chloro-2-(1-(2,6-difluoro-4-methoxyphenyl)-2-((6-methylpyridin-2-yl)oxy)ethyl)isoindolin-1-one] was tested, and the remaining activity at 30 µM was 57%. With COc1cc(F)c(C(COc2cccc(C)n2)N2Cc3cc(Br)ccc3C2=O)c(F)c1 (centres unmarked) [EU1180-612, 5-Bromo-2-(1-(2,6-difluoro-4-methoxyphenyl)-2-((6-methylpyridin-2-yl)oxy)ethyl)isoindolin-1-one] the remaining activity at 30 µM was 79%. COc1cc(F)c(C(COc2cccc(C)n2)N2Cc3cc(F)ccc3C2=O)c(F)c1 (centres unmarked) [EU1180-613, 2-(1-(2,6-Difluoro-4-methoxyphenyl)-2-((6-methylpyridin-2-yl)oxy)ethyl)-5-fluoroisoindolin-1-one] gave a remaining activity at 30 µM of 89%. COc1cc(F)c(C(COc2cccc(C)n2)N2Cc3ccc(F)cc3C2=O)c(F)c1 (centres unmarked) [EU1180-614, 2-(1-(2,6-Difluoro-4-methoxyphenyl)-2-((6-methylpyridin-2-yl)oxy)ethyl)-6-fluoroisoindolin-1-one] gave a remaining activity at 30 µM of 57%.
